In one experiment the target is T1, human placental CYP19 (Homo sapiens, UniProt P11511).
T1 construct: The enzyme was obtained from the microsome fraction of fresh human placenta; from tissue; host or cells: human placenta, microsomal fraction
T1 sequence (P11511 1-503): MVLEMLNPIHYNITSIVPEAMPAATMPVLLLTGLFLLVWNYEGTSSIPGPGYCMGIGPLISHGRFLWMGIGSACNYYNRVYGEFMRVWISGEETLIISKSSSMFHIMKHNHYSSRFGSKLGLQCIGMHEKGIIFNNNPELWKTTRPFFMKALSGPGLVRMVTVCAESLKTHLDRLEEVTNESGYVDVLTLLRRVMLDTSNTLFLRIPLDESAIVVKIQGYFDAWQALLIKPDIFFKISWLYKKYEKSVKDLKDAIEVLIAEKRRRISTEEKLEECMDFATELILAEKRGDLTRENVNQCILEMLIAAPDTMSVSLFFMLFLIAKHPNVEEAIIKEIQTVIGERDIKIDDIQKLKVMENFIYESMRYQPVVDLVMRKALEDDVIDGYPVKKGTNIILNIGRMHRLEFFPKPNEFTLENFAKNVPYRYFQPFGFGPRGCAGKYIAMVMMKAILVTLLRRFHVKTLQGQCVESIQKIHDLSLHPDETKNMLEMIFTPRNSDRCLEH
Nature of the experiment: IC50 of CYP19 (human placental microsomes). As to conditions: human placental CYP19; testosterone substrate 2.5 μM. It counts as biochemical. As to the method: The isolated microsomes were suspended in a minimum volume of phosphate buffer (0.05 M; pH 7.4; […]). In addition, DTT (10 mM) and EDTA (1 mM) were added to protect the enzyme from degradation reactions.
[…] […] The compounds to be tested were dissolved in DMSO and diluted with buffer to the desired concentration. The final DMSO concentration of the control and inhibitor incubations was about 20%. Each vessel was preincubated in a water bath at 30° C. for 5 min. The reaction was started by adding the microsomal protein (0.1 mg). The total volume of each mixture was 200 μl. After 14 min, the reaction was quenched by adding 200 μl of ice cold 1 mM HgCl2 solution. Two hundred microliters of a 2% aqueous suspension of dextran-coated charcoal, DCC) was added for absorbing the steroids, and the vessels were shaken for 20 min. Thereafter, the charcoal was centrifuged off at 1500 g for 5 min. The radioactive water present in the supernatant (^3H2O) was assayed by scintillation measurement using an LKB-Wallac beta counter. The calculation of the IC50 values was effected by a semilogarithmic plot of the percent inhibition against the inhibitor concentration.

Another experiment deals with T2, human CYP11B2 (Homo sapiens, UniProt P19099).
T2 sequence (P19099 25-503): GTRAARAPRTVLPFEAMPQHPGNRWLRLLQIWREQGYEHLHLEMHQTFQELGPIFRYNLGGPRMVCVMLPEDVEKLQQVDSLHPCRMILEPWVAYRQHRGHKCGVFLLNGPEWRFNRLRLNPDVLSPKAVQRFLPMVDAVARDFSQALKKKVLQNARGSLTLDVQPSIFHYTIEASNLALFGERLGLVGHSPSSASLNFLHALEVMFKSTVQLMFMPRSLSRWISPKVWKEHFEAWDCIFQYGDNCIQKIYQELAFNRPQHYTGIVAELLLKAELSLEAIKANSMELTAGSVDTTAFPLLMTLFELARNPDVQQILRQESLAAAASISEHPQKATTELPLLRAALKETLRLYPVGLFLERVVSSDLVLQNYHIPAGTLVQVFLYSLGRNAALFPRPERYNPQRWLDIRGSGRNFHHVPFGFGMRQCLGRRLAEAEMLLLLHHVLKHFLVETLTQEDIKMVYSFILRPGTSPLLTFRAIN
The experiment can be described thus: Screening test in transgenic fission yeast (S. pombe PE1) expressing human CYP11B2. In kind it is cell-based. As to conditions: S. pombe cells which express human CYP11B2; deoxycorticosterone substrate 100 nM; inhibitor 500 nM; read-out: % Inhibition human hCYP11B2. Set-up: expressed in transfected cells. The method, boiled down: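 Deoxycorticosterone conversion to corticosterone, 18-hydroxycorticosterone and aldosterone assessed after EtOAc extraction by HPTLC with 14C phosphorimaging. Conversion rate calculated from quantified steroid spots.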

The record followed here is patent US20090105278A1, “Selective inhibitors of human corticosteroid syntheses” (Universitat Des Saarlandes, priority 2004, published 2009).

pIC50: −log10 of the molar value. Where a name gives a salt, the structure may show the parent alone.

What is called pIC50 is the IC50 on a negative log10 scale, so that one unit is a factor of ten. Low readings indicate a large IC50, high ones a small IC50. By inhibition is commonly meant the drop in the measured response relative to a control, in per cent.

`CCOc1ccc2c(c1)CC/C2=C\c1cccnc1` [Compound 19a, 3-[(E)-(5-Ethoxy-2,3-dihydro-1H-indane-1-ylidene)methyl]pyridine Hydrochloride] showed a pIC50 at human placental CYP19 of 5.15. Besides, the inhibition at 0.5 µM on human CYP11B2 amounted to 67%.

The compound `CCOc1ccc2c(c1)CC/C2=C/c1cccnc1` [Compound 19b, 3-[(Z)-(5-Ethoxy-2,3-dihydro-1H-indane-1-ylidene)methyl]pyridine Hydrochloride] gave a pIC50 against human placental CYP19 of 5.11. Moreover, the inhibition at 0.5 µM on human CYP11B2 is 52%.

`Cc1cccc2c1CC/C2=C\c1cccnc1` [Compound 23a, 3-[(E)-(4-Methyl-2,3-dihydro-1H-indane-1-ylidene)methyl]pyridine Hydrochloride]: the pIC50 against human placental CYP19 is 5.33. The inhibition at 0.5 µM on human CYP11B2 was 52%.

In the case of `Fc1cccc2c1CC/C2=C\c1cccnc1` [Compound 24a, 3-[(E)-(4-Fluoro-2,3-dihydro-1H-indane-1-ylidene)methyl]pyridine Hydrochloride], the negative-log IC50 (pIC50) on human placental CYP19 is 5.74. Further, the inhibition at 0.5 µM on human CYP11B2 came out at 84%.

`Clc1cccc2c1CC/C2=C\c1cccnc1` [Compound 25a, 3-[(E)-(4-Chloro-2,3-dihydro-1H-indane-1-ylidene)methyl]pyridine Hydrochloride] gave a negative-log IC50 (pIC50) at human placental CYP19 of 6.89. Moreover, at human CYP11B2, the inhibition at 0.5 µM worked out at 92%.

Compound `Clc1cccc2c1CC/C2=C/c1cccnc1` [Compound 25b, 3-[(Z)-(4-Chloro-2,3-dihydro-1H-indane-1-ylidene)methyl]pyridine Hydrochloride] had a pIC50 against human placental CYP19 of 6.64. Moreover, at human CYP11B2, the inhibition at 0.5 µM was 83%.

Consider `COc1cccc2c1/C(=C/c1cccnc1)CC2` [Compound 26a, 3-[(E)-(7-Methoxy-2,3-dihydro-1H-indane-1-ylidene)methyl]pyridine Hydrochloride], for which the pIC50 at human placental CYP19 was 5.01. On human CYP11B2, the inhibition at 0.5 µM was determined as 76%.

Consider `Fc1ccc2c(c1)CC/C2=C\c1cncnc1` [Compound 28a, 5-[(E)-(5-Fluoro-2,3-dihydro-1H-indane-1-ylidene)methyl]pyrimidine Hydrochloride], for which the pIC50 at human placental CYP19 is 5.13. In addition, the inhibition at 0.5 µM on human CYP11B2 was determined as 72%.

Compound `Fc1ccc2c(c1)CC/C2=C\c1cccc2cnccc12` [Compound 30a, 5-[(E)-(5-Fluoro-2,3-dihydro-1H-indane-1-ylidene)methyl]isoquinoline Hydrochloride] showed a pIC50 against human placental CYP19 of 6.14. Further, the inhibition at 0.5 µM on human CYP11B2 was 60%.

Compound `Fc1ccc2c(c1)CC/C2=C/c1cccc2cnccc12` [Compound 30b, 5-[(Z)-(5-Fluoro-2,3-dihydro-1H-indane-1-ylidene)methyl]isoquinoline Hydrochloride] had a pIC50 at human placental CYP19 of 5.71. Further, the inhibition at 0.5 µM at human CYP11B2 amounted to 91%.

`C(=C1/CCCc2ccccc21)/c1cnc[nH]1` [Compound 41a, 5-[(E)-3,4-Dihydronaphth-1(2H)-ylidenemethyl]-1H-imidazole] gave a pIC50 against human placental CYP19 of 6.65. In addition, at human CYP11B2, the inhibition at 0.5 µM amounted to 80%.

At human placental CYP19, `Cl.Clc1ccc2c(c1)CC/C2=C\c1cnc[nH]1` [Compound 48a, 5-[(E)-(5-Chloro-2,3-dihydro-1H-indene-1-ylidene)methyl]-1H-imidazolium chloride] gave a pIC50 of 6.48. Besides, the inhibition at 0.5 µM at human CYP11B2 was found to be 79%.
